Patent publication US10399968B2, “Hydroxyalkyl thiadiazole derivatives” (Daiichi Sankyo Company, Limited, priority 2015, dated 2019)
≈ marks a conversion by molar mass, not a printed value. Where two headings read alike, the source gives them in different places.

Tests used:
[1] = target: Clostridium difficile DNA gyrase (Clostridioides difficile, UniProt Q18C89); test: DNA supercoiling inhibition assay; type: biochemical; conditions: supercoiling of relaxed pBR322 DNA, 60 minutes at 37° C.
Procedure: DNA supercoiling assays (30 μL reaction) were performed in a buffer containing 15 mM Tris-HCl pH 7.5, 13% glycerol, 6 mM MgCl2, 0.1 mg/mL BSA, 70 mM KCl, 1 mM dithioerythritol, 400 ng of DNA substrate (relaxed pBR322 DNA) and different concentrations of test compounds and/or standards. The dilutions of test compounds and standards were prepared in 20% dimethylsulfoxide (DMSO) and added 3 μL/reaction. The reaction was started by adding 2 μL amounts of Clostridium difficile DNA gyrase into the reaction mixtures and reactions were allowed to proceed for 60 minutes at 37° C. A reaction was carried out by adding 3 μL of 20% DMSO instead of test compound as full reaction control, and another reaction was carried out by adding sterile water instead of the enzyme as no reaction control.
Reactions were stopped by the addition of 5 μL of 6×loading dye and were analyzed by electrophoresis through 1.0% agarose gels with 1×TAE running buffer. Gels were run at 60 V for 3 hours, stained with EtBr, and visualized by Gel Doc system (BioRad). Intensity of the supercoiled DNA bands was quantified, and the IC50 of Clostridium difficile DNA gyrase was calculated using Graph Pad Prism.

[2] = tested on: S. aureus ATCC 29213; test: Susceptibility of bacteria, broth microdilution MIC; type: cell-based; conditions: Staphylococcus aureus, ATCC29213
Procedure: The antibacterial activity of the compounds of the present invention was tested by the broth microdilution method. The assay was carried out according to the CLSI guidelines for managing the procedures of susceptibility tests: “M7-A7 Methods for Dilution Antimicrobial Susceptibility Tests for Bacteria That Grow Aerobically; Approved Standard-Seventh Edition (2006)”. Test strains were grown on appropriate agar plates overnight. A broth containing the test compound diluted serially 2-fold and diluents were dispensed at 100 μL to each well of a 96-well microplate. As a growth control, a well with a broth not containing the test compound was also prepared. Colonies grown on the plates were suspended in saline, adjusted to 0.5 McFarland (OD625=0.08 to 0.10) using a colorimeter, and then diluted 10-fold with saline. The bacterial suspension was inoculated at 4 μL into each well of the microplate using a bacterial suspension inoculation apparatus. The inoculated microplate was incubated at 35° C. overnight (about 20 hours). The growth condition was observed by the naked eye, and the minimum concentration to inhibit bacterial proliferation was defined as a minimum inhibitory concentration (MIC). The MICs of compounds disclosed herein for E. faecium, Streptococcus pneumoniae and Haemophilus influenzae are shown in Table 2, while for S. aureus in Table 3.

[3] = tested on: Clostridium difficile ATCC 43255; test: Susceptibility of Clostridium difficile, agar dilution MIC; type: cell-based; conditions: Clostridioides difficile, ATCC43255, anaerobic
Procedure: The antibacterial activity of the compounds of the present invention against Clostridium difficile clinical isolates was tested by the agar dilution method. The assay was carried out according to the CLSI guidelines for managing the procedures of susceptibility tests “M11-A8, Methods for Antimicrobial Susceptibility Testing of Anaerobic Bacteria; Approved Standard-Eighth Edition. CLSI document (2012)”.
The test strains were spread on supplemented Brucella agar (SBA) plates and grown at 36° C. under anaerobic condition for 42 to 48 hours. The test compound dilutions were prepared with Brucella broth and SBA plates containing dilution of test compound were prepared. As an anaerobic growth control, plates not containing the test compound were also prepared. Colonies grown on plates were suspended with Brucella broth to adjust the turbidity to 0.5 McFarland using a densitometer. Suspension (1-2 μL) of the test strains was inoculated onto each agar surface by using a bacterial suspension inoculation apparatus. After anaerobic incubation at 36° C. for 42 to 48 hours, absence and presence of growth of each strain were examined with unaided eye. The MIC was determined at which a marked reduction occurs in the appearance of growth on the test plate as compared to that of growth on the anaerobic control plates.

[4] = Solubility in water (JP1 / JP2 fluids); type: physicochemical; conditions: thermodynamic from solid
Procedure: A 10 mmol/L solution of the test compound was prepared in DMSO and dispensed 100 μL of 10 mmol/L DMSO stock solutions into labeled glass tubes in duplicate, one for Japanese Pharmacopeia First Fluid (JP1) and second for Japanese Pharmacopeia Second Fluid (JP2). After evaporation of DMSO from each tube, 500 μL of JP1 and JP2 fluid were added in each tube, respectively. These tubes were sonicated for 1 minute and placed on shaker for 30 minutes with an interval of 30 seconds at every 5 minute. Tubes were placed in dark at room temperature for 1 hour and solution was filtered through membrane filter. The filtrate was diluted 2-fold and 10-fold. The resulting test solutions was analyzed and quantified against the standards using UPLC (standard preparation—10 mmol/L solution in DMSO is serially diluted with 50% aqueous acetonitrile solution to prepare 2 solutions; 100 μmol/L standard solution and 5 μmol/L standard solutions).

[5] = tested on: Clostridium difficile 2009155, a NAP1/027 strain; test: Hamster CDI model; type: in vivo; conditions: 0.3 mg/kg/day by oral route, 5 days
Procedure: The in vivo efficacy of test compounds were evaluated in a hamster CDI model caused by Clostridium difficile 2009155, a NAP1/027 strain. Syrine hamsters (6-8-weeks old) were primed with a single subcutaneous injection of clindamycin (30 mg/kg) 1-5 days prior to infection. Hamsters were infected by oral gavage with 1 ml of spore suspension ([…]) prepared in PBS. The drug was administered to the hamsters 6 hours post infection by oral or subcutaneous route at an interval of 24 hours for 5 days. The death and survival of the non-treated group and the drug-administered group were recorded once daily for 35 days.

[6] = tested on: P. acnes ATCC 6523; test: Susceptibility of P. acnes, agar dilution MIC; type: cell-based; conditions: Cutibacterium acnes, ATCC6523, anaerobic
Procedure: (§1) The antibacterial activity of the compounds of the present invention against P. acnes clinical isolates was tested by the agar dilution method. The assay was carried out according to the CLSI guidelines document (Clinical and Laboratory Standards Institute, 2012 & 2016). The test strains were spread on supplemented Brucella agar (SBA) plates and grown for 42 to 48 hours at 36° C. under anaerobic condition. The test compound dilutions were prepared with Brucella broth and SBA plates containing dilution of test compound were prepared. As an anaerobic growth control and to check the aerobic contamination, plates not containing the test compound were also prepared. Colonies grown on plates were suspended with Brucella broth to adjust the turbidity to 0.5 McFarland using a densitometer. Suspension (1-2 μL) of the test strains was inoculated onto each agar surface by using a bacterial suspension inoculation apparatus (multipoint inoculator). After anaerobic incubation for 42 to 48 hours at 36° C., absence and presence of growth of each strain on growth control plates and test compounds plate were examined with unaided eye. The MIC was determined at which a marked reduction occurs in the appearance of growth on the test plate as compared to that of growth on the anaerobic control plates.

[7] = tested on: P. acnes ATCC 6921; test: Susceptibility of P. acnes, agar dilution MIC; type: cell-based; conditions: Cutibacterium acnes, ATCC6921, anaerobic
Procedure: as §1

[8] = tested on: P. acnes IHMA 103740; test: Susceptibility of P. acnes, agar dilution MIC; type: cell-based; conditions: Cutibacterium acnes, IHMA103740, anaerobic
Procedure: as §1

[9] = tested on: P. acnes IHMA 775486; test: Susceptibility of P. acnes, agar dilution MIC; type: cell-based; conditions: Cutibacterium acnes, IHMA775486, anaerobic
Procedure: as §1

[10] = tested on: E. faecium ATCC 29212; test: Susceptibility of bacteria, broth microdilution MIC; type: cell-based; conditions: Enterococcus faecium, ATCC29212
Procedure: (§2) The antibacterial activity of the compounds of the present invention was tested by the broth microdilution method. The assay was carried out according to the CLSI guidelines for managing the procedures of susceptibility tests: “M7-A7 Methods for Dilution Antimicrobial Susceptibility Tests for Bacteria That Grow Aerobically; Approved Standard-Seventh Edition (2006)”. Test strains were grown on appropriate agar plates overnight. A broth containing the test compound diluted serially 2-fold and diluents were dispensed at 100 μL to each well of a 96-well microplate. As a growth control, a well with a broth not containing the test compound was also prepared. Colonies grown on the plates were suspended in saline, adjusted to 0.5 McFarland (OD625=0.08 to 0.10) using a colorimeter, and then diluted 10-fold with saline. The bacterial suspension was inoculated at 4 μL into each well of the microplate using a bacterial suspension inoculation apparatus. The inoculated microplate was incubated at 35° C. overnight (about 20 hours). The growth condition was observed by the naked eye, and the minimum concentration to inhibit bacterial proliferation was defined as a minimum inhibitory concentration (MIC).

[11] = tested on: Haemophilus influenzae ATCC 49247; test: as above; type: cell-based; conditions: ATCC49247
Procedure: as §2

[12] = tested on: Streptococcus pneumoniae ATCC 49619; test: as above; type: cell-based; conditions: ATCC49619
Procedure: as §2

[13] = Japanese Pharmacopeia First Fluid (JP1), pH 1.2, simulated gastric fluid, read-out: Solubility JP1
[14] = Japanese Pharmacopeia Second Fluid (JP2), pH 6.8, aqueous buffer, read-out: Solubility JP2

Clostridium difficile DNA gyrase, sequence (Q18C90 entry or part of it): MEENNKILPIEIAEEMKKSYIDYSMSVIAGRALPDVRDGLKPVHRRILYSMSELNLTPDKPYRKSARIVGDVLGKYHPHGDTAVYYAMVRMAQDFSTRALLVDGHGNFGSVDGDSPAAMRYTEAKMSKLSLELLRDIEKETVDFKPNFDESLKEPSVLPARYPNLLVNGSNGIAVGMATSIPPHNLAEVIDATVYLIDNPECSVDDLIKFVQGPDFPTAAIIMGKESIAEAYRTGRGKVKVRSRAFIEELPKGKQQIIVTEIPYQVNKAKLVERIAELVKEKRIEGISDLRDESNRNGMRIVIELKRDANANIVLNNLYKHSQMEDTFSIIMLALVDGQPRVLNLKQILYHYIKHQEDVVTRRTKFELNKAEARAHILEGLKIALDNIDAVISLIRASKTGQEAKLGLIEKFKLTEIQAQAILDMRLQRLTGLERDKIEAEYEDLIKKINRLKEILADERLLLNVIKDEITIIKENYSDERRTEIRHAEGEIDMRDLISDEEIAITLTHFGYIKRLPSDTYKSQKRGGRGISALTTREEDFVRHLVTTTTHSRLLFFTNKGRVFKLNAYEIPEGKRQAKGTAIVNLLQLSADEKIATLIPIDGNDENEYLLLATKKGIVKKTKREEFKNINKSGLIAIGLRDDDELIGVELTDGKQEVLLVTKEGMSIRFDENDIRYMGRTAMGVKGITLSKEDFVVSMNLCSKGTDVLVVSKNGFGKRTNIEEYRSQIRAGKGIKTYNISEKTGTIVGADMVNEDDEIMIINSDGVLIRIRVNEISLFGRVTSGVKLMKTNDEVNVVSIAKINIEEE
Clostridium difficile DNA gyrase, sequence (Q18C89 entry or part of it): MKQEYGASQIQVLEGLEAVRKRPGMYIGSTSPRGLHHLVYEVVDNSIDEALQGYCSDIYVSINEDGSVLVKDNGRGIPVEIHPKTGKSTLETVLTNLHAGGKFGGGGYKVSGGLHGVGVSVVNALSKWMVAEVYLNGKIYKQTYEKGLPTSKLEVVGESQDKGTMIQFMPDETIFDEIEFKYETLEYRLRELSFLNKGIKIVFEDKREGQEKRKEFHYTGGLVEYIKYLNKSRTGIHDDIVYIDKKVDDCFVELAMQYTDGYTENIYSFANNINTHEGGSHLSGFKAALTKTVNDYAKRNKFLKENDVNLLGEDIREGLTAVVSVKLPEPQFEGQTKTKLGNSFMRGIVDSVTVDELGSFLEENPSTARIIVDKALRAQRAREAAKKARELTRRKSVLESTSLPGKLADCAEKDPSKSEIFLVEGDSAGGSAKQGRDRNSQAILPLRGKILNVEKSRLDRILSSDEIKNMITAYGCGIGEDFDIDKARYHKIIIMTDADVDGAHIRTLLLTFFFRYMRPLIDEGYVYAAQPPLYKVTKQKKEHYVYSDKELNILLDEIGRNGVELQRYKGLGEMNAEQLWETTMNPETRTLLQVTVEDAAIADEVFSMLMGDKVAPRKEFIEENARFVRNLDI

| Structure (SMILES) | IC50 [1] [µM] | MIC [2] [mg/L] | MIC [3] [mg/L] | solubility at 30 min [4, 13] [mg/mL] | solubility at 30 min [4, 14] [mg/mL] | survival on day 35 [5] [%] | MIC [6] [mg/L] | MIC [7] [mg/L] | MIC [8] [mg/L] | MIC [9] [mg/L] | MIC [10] [mg/L] | MIC [11] [mg/L] | MIC [12] [mg/L] |
| --- | --- | --- | --- | --- | --- | --- | --- | --- | --- | --- | --- | --- | --- |
| CCc1[nH]c(C(=O)N[C@@H]2CCN(c3nnc(C(C)(O)CO)s3)C[C@@H]2OC)nc1Cl (stereo in doubt) [Compound No. 11, 4-Chloro-N-[(3S,4R)-1-{5-[(2S)-1,2-dihydroxypropan-2-yl]-1,3,4-thiadiazol-2-yl}-3-methoxypiperidin-4-yl]-5-ethyl-1H-imidazole-2-carboxamide] | 0.027 | 1 (≈ 2.25 µM) | 0.06 (≈ 0.135 µM) | 0.884 (≈ 1990 µM) | 0.264 (≈ 593 µM) | 100 |  |  |  |  |  |  |  |
| CCc1[nH]c(C(=O)N[C@@H]2CCN(c3nnc(C(O)CO)s3)C[C@@H]2OC)nc1Cl (stereo in doubt) [Compound No. 8, 4-Chloro-N-[(3S,4R)-1-{5-[(1S)-1,2-dihydroxyethyl]-1,3,4-thiadiazol-2-yl}-3-methoxypiperidin-4-yl]-5-ethyl-1H-imidazole-2-carboxamide] |  | 4 (≈ 9.28 µM) | 0.125 (≈ 0.29 µM) | 0.728 (≈ 1690 µM) | 0.125 (≈ 290 µM) |  | 0.25 (≈ 0.58 µM) | 0.25 (≈ 0.58 µM) | 0.25 (≈ 0.58 µM) | 0.25 (≈ 0.58 µM) |  |  |  |
| CCO[C@H]1CN(c2nnc(C(C)O)s2)CC[C@H]1NC(=O)c1nc(Cl)c(CC)[nH]1 (stereo partly drawn) [Compound No. 1, 4-Chloro-N-{(3S,4R)-3-ethoxy-1-[5-(1-hydroxyethyl)-1,3,4-thiadiazol-2-yl]piperidin-4-yl}-5-ethyl-1H-imidazole-2-carboxamide] | 0.00863 | 0.5 (≈ 1.17 µM) | 0.03 (≈ 0.0699 µM) |  |  | 100 |  |  |  |  | 0.25 (≈ 0.583 µM) | 2 (≈ 4.66 µM) | 0.25 (≈ 0.583 µM) |
| CCO[C@H]1CN(c2nnc(C(C)(C)O)s2)CC[C@H]1NC(=O)c1nc(Cl)c(CC)[nH]1 [Compound No. 7, 4-Chloro-N-{(3S,4R)-3-ethoxy-1-[5-(2-hydroxypropan-2-yl)-1,3,4-thiadiazol-2-yl]piperidin-4-yl}-5-ethyl-1H-imidazole-2-carboxamide] |  | 0.5 (≈ 1.13 µM) | 0.125 (≈ 0.282 µM) |  | 0.611 (≈ 1380 µM) |  |  |  |  |  |  |  |  |
| CCc1[nH]c(C(=O)N[C@@H]2CCN(c3nnc(C(C)CO)s3)C[C@@H]2OC)nc1Cl (stereo partly drawn) [Compound No. 6, 4-Chloro-5-ethyl-N-{(3S,4R)-1-[5-(1-hydroxypropan-2-yl)-1,3,4-thiadiazol-2-yl]-3-methoxypiperidin-4-yl}-1H-imidazole-2-carboxamide] |  | 0.5 (≈ 1.17 µM) | 0.125 (≈ 0.291 µM) |  |  |  | 0.125 (≈ 0.291 µM) | 0.125 (≈ 0.291 µM) | 0.25 (≈ 0.583 µM) | 0.25 (≈ 0.583 µM) |  |  |  |
| CCc1[nH]c(C(=O)N[C@@H]2CCN(c3nnc(C(O)CO)s3)C[C@@H]2OC)nc1Cl (stereo in doubt) [Compound No. 9, 4-Chloro-N-[(3S,4R)-1-{5-[(1R)-1,2-dihydroxyethyl]-1,3,4-thiadiazol-2-yl}-3-methoxypiperidin-4-yl]-5-ethyl-1H-imidazole-2-carboxamide] |  | 4 (≈ 9.28 µM) | 0.125 (≈ 0.29 µM) | 0.862 (≈ 2000 µM) | 0.22 (≈ 511 µM) |  | 0.125 (≈ 0.29 µM) | 0.125 (≈ 0.29 µM) | 0.125 (≈ 0.29 µM) | 0.125 (≈ 0.29 µM) |  |  |  |
